Patent US12115226B2, “Linker containing arylnitro, antibody-drug conjugate containing linker and use of linker” (Academy of Military Medical Sciences, priority 2018, dated 2024)
Square brackets hold non-standard residues; d marks the D form. Peptide text beside a SMILES is read from it. * marks the point of attachment. Dolaproine = CO[C@@H]([C@@H]1CCCN1)[C@@H](C)C(=O)O; Dil = CC[C@H](C)[C@H](NC)[C@@H](CC(=O)O)OC; X1 = C[C@@H](N*)[C@@H](O)c1ccccc1; NMeV = CN[C@H](C(=O)O)C(C)C

Experiments:
[1] = tested on: antigen HER2-positive breast cancer cell line BT-474; experiment: Hypoxia-dependent cytotoxicity of ADC-1 (different oxygen environments); details: for IC50: Homo sapiens
Experimental: The tested cell line was antigen HER2-positive breast cancer cell line BT-474. The cell culture process was as described in Example 12, in which the oxygen concentrations in the cell incubator were separately set to 0.1%, 1.0%, 5.0%, 10.0% and 20.0%.

[2] = tested on: NCI-N87 human gastric cancer cell xenograft; experiment: Efficacy in nude mice xenograft model of NCI-N87 human gastric cancer cell
Experimental: The tested drug was dissolved in physiological saline and administered via tail vein injection.
The NCI-N87 gastric adenocarcinoma cells (purchased from ATCC) were cultured with DMEM medium containing inactivated 10% fetal bovine serum, 100 U/mL penicillin, 100 μg/mL streptomycin, and 2 mM glutamine in an incubator at 37° C. and 5% CO2. The initial concentration of the cultured cell was 1×10^6 cells/ml, and the cells were divided into bottles for passage every 3 to 4 days after the cells were full. The cancer cells in the logarithmic growth phase at 5×10^6 cells/0.1 mL were inoculated under skin of right lateral thorax of BALB/c nude mice (female, 6-8 weeks old, 18-22 g, purchased from Beijing Ankai Yibo Biotechnology Co., Ltd.). When the tumor grew to a volume of 150 mm^3, the modeling was successful. Then the administration was started, 6 mice in each dose group were administered at the specified dose once a week, the administration volume was 5 mL/kg, and the administration was performed 4 times in total. The tumor volume was measured twice a week by measurement of the long and short diameters of tumor with vernier caliper. The volume calculation formula was: volume=0.5×long diameter×short diameter^2. When the tumor volume was measured, the mice were weighed at the same time. The relationship between the change of mouse body weight and the time of administration was recorded. […]

[3] = tested on: antigen HER2-negative breast cancer cell line MDA-MB-468; experiment: In vitro cytotoxicity of ADC (CellTiter Glo), MDA-MB-468; assay type: cell-based; details: 0.1% O2, 168 hours, ADC DAR about 4
Experimental: (§1) The vial containing the target cells was gently stirred in a 37° C. water bath to be thawed.
(§2) After the content was thawed, the vial was taken out from the water bath and decontaminated by immersion or spraying with 70% ethanol.
(§3) The cells were re-suspended in the culture medium, settled and distributed into a culture flask with an area of 75 cm^2.
(§4) The resulting culture was incubated in a Galaxy® CO2 incubator (48R, #C048312044) with 5% CO2 at 37° C., and the oxygen concentration in the incubator was 0.1%.
(§5) The cells were passaged three times a week at a ratio of 1:4 in a medium containing 10% […] (heat inactivated) and 1% penicillin-streptomycin solution.
(§6) For the passaged cells, the adherent cells were firstly rinsed with trypsin/EDTA solution (3 mL), then trypsin/EDTA (3 mL, T75 flask) was added, and spun to coat the cells evenly. The resulting culture was incubated at 37° C. until the cells were detached. It was observed by microscope to verify that the cells had been detached, then an equal volume of cell culture medium was added to inactivate trypsin, the detached cells were collected, and centrifuged at 200 g for 5 minutes, and then re-suspended in a fresh culture medium. […]
(§7) The cells were harvested and counted to determine the number of cells;

[4] = tested on: antigen HER2-positive ovarian cancer cell line SK-OV-3; experiment: In vitro cytotoxicity of ADC (CellTiter Glo), SK-OV-3; assay type: cell-based; details: 0.1% O2, 168 hours, ADC DAR about 4
Experimental: as §1, §2, §3, §4, §5, §6, §7

[5] = tested on: antigen HER2-positive breast cancer cell line BT-474; experiment: In vitro cytotoxicity of ADC (CellTiter Glo), BT-474; assay type: cell-based, human; details: 0.1% O2, 168 hours, ADC DAR about 4
Experimental: as §1, §2, §3, §4, §5, §6, §7

[6] = tested on: antigen HER2-weakly positive breast cancer cell line MCF-7; experiment: In vitro cytotoxicity of ADC (CellTiter Glo), MCF-7; assay type: cell-based; details: 0.1% O2, 168 hours, ADC DAR about 4
Experimental: as §1, §2, §3, §4, §5, §6, §7

[7] = tested on: antigen HER2-positive gastric cancer cell line NCI-N87; experiment: In vitro cytotoxicity of ADC (CellTiter Glo), NCI-N87; assay type: cell-based, human; details: 0.1% O2, 168 hours, ADC DAR about 4
Experimental: as §1, §2, §3, §4, §5, §6, §7

[8] = tested on: antigen HER2-positive breast cancer cell line HCC1954; experiment: In vitro cytotoxicity of ADC (CellTiter Glo), HCC1954; assay type: cell-based; details: 0.1% O2, 168 hours, ADC DAR about 4
Experimental: as §1, §2, §3, §4, §5, §6, §7

In the case of CC[C@H](C)[C@@H]([C@@H](CC(=O)N1CCC[C@H]1[C@H](OC)[C@@H](C)C(=O)N[C@H](C)[C@@H](O)c1ccccc1)OC)N(C)C(=O)[C@@H](NC(=O)[C@H](C(C)C)N(C)C(=O)OCc1ccc(OCc2cnc([N+](=O)[O-])n2C)c(NC(=O)CNCCCCCCN2C(=O)C=CC2=O)c1)C(C)C [L01-MMAE], the IC50 ([1]; BT-474, read-out: IC50, cytotoxicity to BT-474 cells, O2 0.1%) is reported as 3.1 nM, the IC50 ([1]; BT-474, read-out: IC50, cytotoxicity to BT-474 cells, O2 1.0%) is reported as 3.11 nM and the IC50 ([1]; BT-474, read-out: IC50, cytotoxicity to BT-474 cells, O2 5.0%) is reported as 4.32 nM. For the same compound, the IC50 ([1]; BT-474, read-out: IC50, cytotoxicity to BT-474 cells, O2 10.0%) was 8.94 nM, the IC50 ([1]; BT-474, read-out: IC50, cytotoxicity to BT-474 cells, O2 20.0%) was 5.39 nM and the “increase of activity under hypoxic condition compared with normoxic condition” value ([1]; oxygen 0.1% versus 20%, BT-474) was about 2 times.

For CC(=O)O[C@@]12CO[C@@H]1C[C@H](O)[C@@]1(C)C(=O)[C@H](O)C3=C(C)[C@@H](OC(=O)[C@H](O)[C@@H](NC(=O)OC(C)(C)C)c4ccccc4)C[C@@](O)([C@@H](OC(=O)c4ccccc4)[C@H]21)C3(C)C [Doxetaxel], the “P(Vehicle VS Doxetaxel), body weight” value [2] was 0.0422 and the “body weight of animals in the course of administration and treatment” value ([2]; nude mice) was “significant weight loss”.

CC[C@H](C)[C@@H]([C@@H](CC(=O)N1CCC[C@H]1[C@H](OC)[C@@H](C)C(=O)N[C@H](C)[C@@H](O)c1ccccc1)OC)N(C)C(=O)[C@@H](NC(=O)[C@@H](NC)C(C)C)C(C)C [MMAE, monomethyl auristatin E] (H-[NMeV]V[Dil][Dolaproine]-X1) was tested, and the IC50 [3] was 0.13 nM, the IC50 [4] was 0.54 nM and the IC50 [5] was 0.06 nM. It also gave an IC50 [6] of 3.81 nM, an IC50 [7] of 0.23 nM and an IC50 [8] of 0.07 nM.
